According to patent US8377934B2, “Use of stilbene derivatives for treatment and prevention of aquatic mold infections” (State of Israel, Ministry of Agriculture & Rural …, priority 2006, dated 2013):

Legend:
[1] = test system: Chlorella, Microcystis, Peridinium, Melosira and Lake Kinneret samples; experiment: 14C-carbon uptake study of photosynthetic activity; format: cell-based, phytoplankton; settings: 100 mg/L
Method: FIG. 6 illustrates the effect of exposure to Blankophor® BA (100 mg/L) (□) on photosynthetic activity in pure cultures of Chlorella (C), Microcystis (M), Peridinium (P) and Melosira (Me), and in samples from Lake Kinneret (LK), as determined by ^14C-uptake. Control, (▪).
Samples from Lake Kinneret and pure cultures of Peridinium sp. and Microcystis sp. were exposed to Blankophor® BA (100 mg/L), for a few minutes and the concentration of chlorophyll-a was determined (in duplicate) according to the excitation spectrum examined (range from 400 to 730 nm). In addition, the exposed and non-exposed samples were assessed for carbon uptake with a ^14C technique.

[2] = test system: Daphnia sp.; experiment: Toxicity to zooplankton (motility); format: in vivo; settings: 100 and 1,000 mg/L, 48 h
Method: Daphnia sp. is a small (0.2 to 5 mm in length) planktonic crustacean, commonly used as a model for aquatic toxicity.
Daphnia (˜1,000 […]/L water) was exposed to Blankophor® BA 100 and 1,000 mg/L). The experiment was carried out in covered flasks (100 ml/per flask), equipped with air supply. The flasks were incubated at room temperature for 48 h, and the Daphnia motility was recorded.

[3] = test system: various fish species; experiment: Toxicity testing in various fish species; format: in vivo; settings: all five fish species tested, 15° C., up to 96 h
Method: LC50 values for Blankophor® BA in various fish species were determined as in Example 2, except that fish were acclimated to 21° C. for three weeks, and then to 15° C. for another two weeks before the initiation of the experiment. Following acclimation to 15° C., Blankophor® BA (100, 200, 500, 1,000 or 2,000 mg/L) was added to the tanks, and mortality of fish was recorded up to 96 h. […] The fish used were: hybrid tilapia (Oreochromis niloticus X O. aureus), average weight 20 g; grey mullet (Mugil cephalus), average weight 70 g; common carp (Cyprinus carpio), average weight 25 g; hybrid striped bass (Morone saxatilis X M. chrysops), average weight 25 g, and grass carp (Ctenopharyngodon idella), average weight 25 g.

`O=S(=O)([O-])c1cc(Nc2nc(Nc3ccccc3)nc(N(CCO)CCO)n2)ccc1C=Cc1ccc(Nc2nc(Nc3ccccc3)nc(N(CCO)CCO)n2)cc1S(=O)(=O)[O-].[K+].[Na+]` [Blankophor® BA] was tested. Which “photosynthetic activity (14C-carbon uptake)” value [1] did it give?
Its value is “did not decrease”.

What about the “Daphnia motility versus non-exposed control” value [2] of the same compound?
The value was “no difference”.

What about the LC50 [3] of the same compound?
Its LC50 is “greater than 2000 mg/L”.
